Source: US20200405697A1, “Antitumor Agent” (Taiho Pharmaceutical Co., Ltd, priority 2017, published 2020)
One block for each compound: values may come before it.

Target: T1, human RNR (histidine tagged human M1 and human M2 proteins) (Homo sapiens, UniProt P23921)
T1 construct: made in house; host or cells: Escherichia coli
T1 sequence (P23921 1-792): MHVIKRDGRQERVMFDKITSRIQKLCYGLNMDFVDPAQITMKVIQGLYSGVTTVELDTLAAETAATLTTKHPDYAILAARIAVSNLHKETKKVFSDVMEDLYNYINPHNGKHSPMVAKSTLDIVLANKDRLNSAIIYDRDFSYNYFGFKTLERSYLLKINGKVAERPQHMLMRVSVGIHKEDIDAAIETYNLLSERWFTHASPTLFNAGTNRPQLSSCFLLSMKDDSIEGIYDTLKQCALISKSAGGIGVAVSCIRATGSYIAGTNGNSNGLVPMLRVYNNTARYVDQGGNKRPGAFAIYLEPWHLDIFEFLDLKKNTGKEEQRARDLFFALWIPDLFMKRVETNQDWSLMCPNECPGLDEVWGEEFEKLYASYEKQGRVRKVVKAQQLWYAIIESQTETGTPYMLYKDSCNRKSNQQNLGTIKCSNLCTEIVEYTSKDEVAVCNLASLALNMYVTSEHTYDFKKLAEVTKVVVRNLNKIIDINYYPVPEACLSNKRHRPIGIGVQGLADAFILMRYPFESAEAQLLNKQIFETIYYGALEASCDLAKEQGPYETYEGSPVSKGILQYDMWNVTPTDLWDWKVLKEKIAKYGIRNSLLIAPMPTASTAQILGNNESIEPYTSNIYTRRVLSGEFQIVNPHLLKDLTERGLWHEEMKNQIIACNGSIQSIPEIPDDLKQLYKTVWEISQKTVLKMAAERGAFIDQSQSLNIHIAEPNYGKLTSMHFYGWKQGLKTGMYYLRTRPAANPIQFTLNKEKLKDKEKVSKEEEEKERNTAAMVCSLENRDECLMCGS
Assay: Human RNR inhibition effect (dCDP formation from CDP)
Format: biochemical
Conditions: 10 μM CDP, 37° C. for 30 minutes, read-out: RNR inhibitory activity IC50
Summary of the method: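 His-tagged human M1 (isoform 1) and N-terminal 59-aa-truncated M2 (isoform 2), E. coli-expressed, Ni-purified, preincubated 20 min with compound (1% DMSO). Reaction with 10 μM CDP, 2 mM ATP, 0.24 mM NADPH, 6 mM DTT, 4 mM Mg acetate, 100 mM KCl, 50 mM HEPES pH 7.2, 30 min at 37° C. dCDP formed quantified by reverse-phase HPLC after heat stop.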

Compound: CCc1ccc(F)c([C@@H](C)[C@H](NS(=O)(=O)c2ccc(Br)cc2C(N)=O)c2n[nH]c(=O)o2)c1C [Example 96, 5-bromo-2-(N-((1S,2R)-2-(3-ethyl-6-fluoro-2-methylphenyl)-1-(5-oxo-4,5-dihydro-1,3,4-oxadiazol-2-yl)propyl)sulfamoyl)benzamide]
IC50: 100 nM

Compound: Cc1c(Br)ccc(F)c1[C@@H](C)[C@H](NS(=O)(=O)c1ccc(Cl)c2c1OCCC2(C)N)c1n[nH]c(=O)o1 (stereo partly drawn) [Example 329, 4-amino-N-((1S,2R)-2-(3-bromo-6-fluoro-2-methylphenyl)-1-(5-oxo-4,5-dihydro-1,3,4-oxadiazol-2-yl)propyl)-5-chloro-4-methyl-chroman-8-sulfonamide]
IC50: 60 nM

Compound: COc1cc(Cl)ccc1S(=O)(=O)N[C@H](c1n[nH]c(=O)o1)[C@H](C)c1c(F)ccc(-c2ccn(C)n2)c1C [Example 305, 4-chloro-N-((1S,2R)-2-(6-fluoro-2-methyl-3-(1-methyl-1H-pyrazol-3-yl)phenyl)-1-(5-oxo-4,5-dihydro-1,3,4-oxadiazol-2-yl)propyl)-2-methoxybenzenesulfonamide]
IC50: 240 nM

Compound: Cc1ccc(F)c([C@@H](C)[C@H](NS(=O)(=O)c2ccc(Cl)c3c2OCCC3(O)C(F)(F)F)c2n[nH]c(=O)o2)c1C (single isomer, unassigned) [Example 220B]
IC50: 80 nM

Compound: COc1cc(Cl)ccc1S(=O)(=O)N[C@H](c1n[nH]c(=O)o1)[C@H](C)c1c(F)ccc(-c2c[nH]nc2C)c1C [Example 308, 4-chloro-N-((1S,2R)-2-(6-fluoro-2-methyl-3-(3-methyl-1H-pyrazol-4-yl)phenyl)-1-(5-oxo-4,5-dihydro-1,3,4-oxadiazol-2-yl)propyl)-2-methoxybenzenesulfonamide]
IC50: 180 nM

Compound: Cc1c(Cl)ccc(F)c1[C@@H](C)[C@H](NS(=O)(=O)c1ccc(Cl)c2c1OCCC2(C)N)c1n[nH]c(=O)o1 (single isomer, unassigned) [Example 330A]
IC50: 120 nM

Compound: Cc1ccc(F)c([C@@H](C)[C@H](NS(=O)(=O)c2ncc(Br)cc2C(N)=O)c2n[nH]c(=O)o2)c1C [Example 250, 5-bromo-2-(N-((1S,2R)-2-(6-fluoro-2,3-dimethylphenyl)-1-(5-oxo-4,5-dihydro-1,3,4-oxadiazol-2-yl)propyl)sulfamoyl)nicotinamide]
IC50: 20 nM

Compound: Cc1ccc(F)c([C@@H](C)[C@H](NS(=O)(=O)c2ncc(Br)cc2C(=O)O)c2n[nH]c(=O)o2)c1C [Example 214, 5-bromo-2-(N-((1S,2R)-2-(6-fluoro-2,3-dimethylphenyl)-1-(5-oxo-4,5-dihydro-1,3,4-oxadiazol-2-yl)propyl)sulfamoyl)nicotinic acid]
IC50: 990 nM

Compound: COc1ccc(-c2ccc(F)c([C@@H](C)[C@H](NS(=O)(=O)c3ccc(Cl)cc3OC)c3n[nH]c(=O)o3)c2C)cc1 [Example 298, 4-chloro-N-((1S,2R)-2-(4-fluoro-4′-methoxy-2-methyl-[1,1′-biphenyl]-3-yl)-1-(5-oxo-4,5-dihydro-1,3,4-oxadiazol-2-yl)propyl)-2-methoxybenzenesulfonamide]
IC50: 300 nM

Compound: COC(=O)c1cc(Cl)cnc1S(=O)(=O)N[C@H](c1n[nH]c(=O)o1)[C@H](C)c1c(F)ccc(C)c1C [Example 118, methyl 5-chloro-2-(N-((1S,2R)-2-(6-fluoro-2,3-dimethylphenyl)-1-(5-oxo-4,5-dihydro-1,3,4-oxadiazol-2-yl)propyl)sulfamoyl)nicotinate]
IC50: 340 nM

Compound: Cc1c(Br)ccc(F)c1[C@@H](C)[C@H](NS(=O)(=O)c1ccc(Cl)c2c1OCCC2O)c1n[nH]c(=O)o1 (single isomer, unassigned) [Example 243A]
IC50: 70 nM

Compound: Cc1ccc(F)c([C@@H](C)[C@H](NS(=O)(=O)c2ccc(Cl)c(C(=O)N3CCOCC3)n2)c2n[nH]c(=O)o2)c1C [Example 113, 5-chloro-N-((1S,2R)-2-(6-fluoro-2,3-dimethylphenyl)-1-(5-oxo-4,5-dihydro-1,3,4-oxadiazol-2-yl)propyl)-6-(moipholine4-carbonyl)pyridine-2-sulfonamide]
IC50: 60 nM

Now from value to compound:

IC50: 190 nM
Compound: Cc1ccc(F)c([C@@H](C)[C@H](NS(=O)(=O)c2cc(C(=O)O)c(Cl)cc2C(N)=O)c2n[nH]c(=O)o2)c1C [Example 38, 4-carbamoyl-2-chloro-5-(N-((1S,2R)-2-(6-fluoro-2,3-dimethylphenyl)-1-(5-oxo-4,5-dihydro-1,3,4-oxadiazol-2-yl)propyl)sulfamoyl)benzoic acid]

IC50: 660 nM
Compound: COC(=O)c1cc(Cl)c(N)cc1S(=O)(=O)N[C@H](c1n[nH]c(=O)o1)[C@H](C)c1c(F)ccc(C)c1C [Example 272, methyl 4-amino-5-chloro-2-(N-((1S,2R)-2-(6-fluoro-2,3-dimethylphenyl)-1-(5-oxo-4,5-dihydro-1,3,4-oxadiazol-2-yl)propyl)sulfamoyl)benzoate]

IC50: 450 nM
Compound: Cc1ccc(F)c([C@@H](C)[C@H](NS(=O)(=O)c2ccc(Cl)s2)c2n[nH]c(=O)o2)c1C [Example 158, 5-chloro-N-((1S,2R)-2-(6-fluoro-2,3-dimethylphenyl)-1-(5-oxo-4,5-dihydro-1,3,4-oxadiazol-2-yl)propyl)thiophene-2-sulfonamide]

IC50: 140 nM
Compound: Cc1ccc(F)c([C@@H](C)[C@H](NS(=O)(=O)c2ccc(Cl)c3c2OCCN3CC(F)F)c2n[nH]c(=O)o2)c1C [Example 102, 5-chloro-4-(2,2-difluoroethyl)-N-((1S,2R)-2-(6-fluoro-2,3-dimethylphenyl)-1-(5-oxo-4,5-dihydro-2,3,4-oxadiazol-2-yl)propyl)-3,4-dihydro-2H-benzo[b][1,4]oxazine-8-sulfonamide]

IC50: 370 nM
Compound: CNC(=O)c1cc(Cl)ccc1S(=O)(=O)N[C@H](c1n[nH]c(=O)o1)[C@H](C)c1c(F)ccc(C)c1C [Example 277, 5-chloro-2-(N-((1S,2R)-2-(6-fluoro-2,3-dimethylphenyl)-1-(5-oxo-4,5-dihydro-1,3,4-oxadiazol-2-yl)propyl)sulfamoyl)-N-methylbenzamide]

IC50: 60 nM
Compound: COC(=O)c1nc(S(=O)(=O)N[C@H](c2n[nH]c(=O)o2)[C@H](C)c2c(F)ccc(C)c2C)ccc1Cl [Example 109, methyl 3-chloro-6-(N-((1S,2R)-2-(6-fluoro-2,3-dimethylphenyl)-1-(5-oxo-4,5-dihydro-1,3,4-oxadiazol-2-yl)propyl)sulfamoyl)picolinate]

IC50: 440 nM
Compound: Cc1ccc(F)c([C@@H](C)[C@H](NS(=O)(=O)c2ccc(Cl)cc2OCC(F)F)c2n[nH]c(=O)o2)c1C [Example 145, 4-chloro-2-(2,2-difluoroethoxy)-N-((1S,2R)-2-(6-fluoro-2,3-dimethylphenyl)-1-(5-oxo-4,5-dihydro-1,3,4-oxadiazol-2-yl)propyl)benzenesulfonamide]

IC50: 50 nM
Compound: Cc1ccc(F)c([C@@H](C)[C@H](NS(=O)(=O)c2ccc(Cl)cc2C(N)=S)c2n[nH]c(=O)o2)c1C [Example 287, 5-chloro-2-(N-((1S,2R)-2-(6-fluoro-2,3-dimethylphenyl)-1-(5-oxo-4,5-dihydro-1,3,4-oxadiazol-2-yl)propyl)sulfamoyl)benzothioamide]

IC50: 60 nM
Compound: COc1c(S(=O)(=O)N[C@H](c2n[nH]c(=O)o2)[C@H](C)c2c(F)ccc(C)c2C)ccc(Cl)c1C(C)O (single isomer, unassigned) [Example 208B]
